Columns and labels:
iDCs [1] = experiment: aNK-induced apoptosis of iDCs at NK:DC ratio 5:1 (7-AAD assay); format: cell-based, human
Method: (a) CD56^+ NK cells were purified from the blood of healthy donors. NK cells were maintained in culture with suboptimal concentrations of interleukin-2 (IL-2) (100 ng/ml) (rNK cells) or activated (aNK cells) by the addition PHA (10 μg/ml) and IL-2 (10 μg/ml) to cultures. […] Data represent the mean±sd of three independent experiments. […] In some cases, iDCs were cocultured with aNK cells at the NK:DC ratio of 5:1. […] Cell death was then quantified with the 7-AAD assay. […] (g) iDCs were cultured for 24 h either alone or with aNK cells (NK:DC ratio of 5:1), in the absence or presence of blocking anti-DR4 antibodies (250 ng/ml). The viability status of DCs was determined by flow cytometry with the 7-AAD assay. […]
FIGS. 11(a)-(b). […] Cell death was then quantified with the 7-AAD assay. […]
rNK or aNK were cocultured during 24 h with iDCs or mDCs at a ratio of 1:5 (2×105 NK+10×105 DC/1 ml), unless otherwise indicated. DC survival was determined with the 7-AAD assay, as described previously55. […]
Immature DCs (iDCs) were prepared from sorted monocytes from healthy donors, cultured for 6 days in the presence of IL-4 and GM-CSF. […] The influence of NK-DC interaction on DC's maturation and apoptosis was analyzed using multiparametric flow cytometry, combining 7-AAD staining with membrane and intracellular staining with mAbs specific for HLA-DR, DC-SIGN, CD83, CD86, DR4, mTRAIL, etc.

iDCs [2] = experiment: aNK-dependent maturation of iDCs in 24 h aNK-iDC coculture (CD86/HLA-DR flow cytometry); format: cell-based, human; conditions: uninfected iDCs, inhibitor 10 μg/ml added at initiation
Method: FIG. 3 (a)-(e). aNK-dependent maturation of HIV-1-infected iDCs is mediated by HMGB1 and involves RAGE. (a) Left panel: iDCs were cultured for 24 h either alone or with aNK cells, in the presence of blocking anti-HMGB1 antibodies (10 μg/ml) or glycyrrhizin (10 μg/ml). The maturation status of DCs was determined by flow cytometry with CD86 and HLA-DR—specific antibodies. Right panel: same experiment, but performed with HIV-1 infected iDCs. Data represent mean±sd of at least three independent experiments, and statistical comparisons were made with the non parametric Mann-Whitney test. * p<0.05. (b) iDC (10^6 cells/ml) were cultured for 48 h with increasing concentrations (1-10 μg/ml) of rh-HMGB1. Cells were then stained with anti-CD86, -HLA-DR, -CD80, -CD83, DC-LAMP and -CD40 antibodies and analyzed by flow cytometry. (c) Influence of rh-HMGB1 on cytokine and chemokine production (determined by MAP) by DCs. iDCs (10^6 cells/ml) were incubated for 48 h in medium or in presence of rh-HMGB1 (1 or 10 μg/ml). As a positive control, iDCs were stimulated with LPS (DC0). […] (e) iDC, DC0, uninfected or HIV-1-infected iDC cocultured for 24 h with aNK cells, were incubated with rh-HMGB1 (1 μg/ml) and subsequently stained with anti-RAGE antibodies and analyzed by flow cytometry. […]

R5-HIV-1Ba-L = experiment: HIV-1 replication in infected iDCs, p24 ELISA in culture supernatant; format: cell-based; conditions: inhibitor 10 μg/ml, 3 days
Method: FIGS. 6 (a), (b) and (c). Exogenous rh-HMGB1 triggers HIV-1 and HIV-2 replication in iDC. (a) HIV-1-infected iDC were cultured alone or in the presence of aNK cells for 3 days. Rh-HMGB1 (1 μg/ml) was added in some cultures. HIV replication was measured by p24 quantification in culture supernatant (b) HIV1-infected iDC were cultured alone or in the presence of aNK cells for 3 days. Blocking anti-HMGB1 antibodies (10 μg/ml) or glycyrrhizin (10 μg/ml) were added at culture initiation. HIV replication was measured by p24 quantification in culture supernatant. The mean±sd of three independent experiments is shown. Statistical comparisons were made with the non parametric Mann-Whitney test. * p<0.05; (c) HIV-2-infected iDC were cultured alone or in the presence of aNK cells for 3 days. Rh-HMGB1 (1 μg/ml) was added in some cultures. HIV replication was measured by p24 quantification in culture supernatant.
Virus stock preparation was prepared by amplification of R5-HIV-1Ba-L on MDM from healthy donors. Viral stock was then clarified by centrifugation prior to determination of HIV1 p24 concentration. iDCs were plated in 96-well culture plates at 200,000 cells/well and incubated for 3 hours at 37° C. in a 5% CO2 atmosphere with R5-HIV-1BAL at various concentrations (0.001 to 10 ng p24/ml). Cells were harvested, washed four times with media containing 10% FCS and, when indicated, rNK or aNK cells were added at a NK:DC ratio of 1:5, unless otherwise indicated. NK-DC cocultures lasted 24 h before analysis of the maturation stage of DCs and/or quantification of viral production. In some experiments (FIG. 6), HIV-1 infected iDCs were incubated alone or with aNK cells for 3 days, in the presence of rh-HMGB1 (1 μg/ml) (R&DSystems), and in some cultures in the presence of rabbit antiHMGB1 Abs (10 μg/ml) (Abcam, Cambridge, UK) or Glycyrrhizin (10 μg/ml).
The concentration of HIV-1 in the supernatant of infected cell cultures was determined by measuring the amount of p24 protein by ELISA (Ingen, Belgium). DNA from cells was extracted using the GIAamp DNA Blood Mini Kit (Qiagen, Basel, Switzerland) and quantified HIV-1 proviral load by RT-PCR as described previously54. The frequency of HIV-1-infected cells was determined by flow cytometry to detect intracellular p24 molecule. Cells were surface stained with antibodies specific for CD40 (BD Biosciences, San Jose, Calif.) to target DC and intracellular stained with p24-specific antibodies (Coulter). Stained cells were fixed in 1% PFA, immediately acquired on a FACScalibur (Becton Dickinson) and analyzed with FlowJo software. In some experiments infected DCs were imaged, after immunofluorescence, by laser scanning confocal microscopy.

HIV-infected DCs = experiment: TRAIL-induced apoptosis of iDCs and HIV-infected DCs (7-AAD assay); format: cell-based, human; conditions: 24 h with 1-1000 ng/ml rhs-TRAIL
Method: FIGS. 10(a)-(d). R5-HIV-infected DCs are resistant to killing by aNK cells, although TRAIL secretion persists in the presence of HIV-1 (a) iDCs were either infected with R5-HIV-1BaL (1 ng/ml of p24) for 24 h or uninfected, and after several washes, they were incubated with aNK cells at the ratios of 1:5 and 5:1. iDCs viability was assayed with the 7-AAD test by flow cytometry. Living cells are 7-AAA^−, apoptotic cells 7-AAD^+, and apoptotic debris are 7-AAD^−FSC^low. Dot plots represent one of at least three independent experiments. […] DCs were uninfected (iDCs), infected with R5-HIV-1 at 1 ng/ml of p24 (HIV-DCs) or stimulated with LPS for 48 h. Cells were then stained with CD86 and HLA-DR. Data represent one of at least three independent experiments. (c) TRAIL secretion is not affected by HIV infection of iDCs. 24 h cell-free culture supernatants of iDCs, HIV-infected DCs (10^6/ml), aNK cells-iDCs cocultures (ratio 5:1) and aNK cells-HIV-infected DCs cocultures (ratio 5:1) were tested for soluble TRAIL (sTRAIL) content by ELISA. Data represent the mean±sd of three independent experiments. […] Cell death was then quantified with the 7-AAD assay. The mean±sd of three independent experiments was presented.

C/C=C/[C@H]1O[C@@](O)([C@@H](C)[C@H](O)[C@H](C)[C@H]2OC(=O)/C(OC)=C/C(C)=C/[C@@H](C)[C@@H](O)[C@@H](CC)[C@@H](O)[C@H](C)C/C(C)=C/C=C/[C@@H]2OC)C[C@@H](O[C@H]2C[C@@H](O)[C@H](OC(N)=O)[C@@H](C)O2)[C@@H]1C [Concanamycin A]
NK-dependent iDCs apoptosis (iDCs [1]; uninfected iDCs, aNK cells, NK:DC ratio 5:1, 24 h): no effect

CC1(C)[C@@H](O[C@H]2O[C@H](C(=O)O)[C@@H](O)[C@H](O)[C@H]2O[C@@H]2O[C@H](C(=O)O)[C@@H](O)[C@H](O)[C@H]2O)CC[C@]2(C)[C@H]3C(=O)C=C4[C@@H]5C[C@@](C)(C(=O)O)CC[C@]5(C)CC[C@@]4(C)[C@]3(C)CC[C@@H]12 [glycyrrhizin, reference compound]
resistance of HIV-1-infected iDCs to aNK-induced apoptosis (inhibition assays) (iDCs [1]; HIV-1-infected iDCs, NK:DC ratio 5:1, AZT added at infection, inhibitors at coculture initiation): found dependent on HMGB1 | proportions of mature DCs (CD86bright HLA-DRbright) (iDCs [2]): reduced the proportions of mature DCs (identified as CD86brightHLA-DRbright) to the baseline level observed without aNK cells | HIV-1 production (p24 in supernatant) (R5-HIV-1Ba-L; infected DC cocultured with aNK cells): abrogated HIV-1 production | HIV-1 production (p24 in supernatant) (R5-HIV-1Ba-L; infected DC cultured alone): abrogated HIV-1 production

B1: rhs-TRAIL: recombinant human soluble TRAIL (protein, UniProt P50591 39-281, looked up)
extracellular domain: TNELKQMQDKYSKSGIACFLKEDDSYWDPNDEESMNSPCWQVKWQLRQLVRKMILRTSEETISTVQEKQQNISPLVRERGPQRVAAHITGTRGRSNTLSSPNSKNEKALGRKINSWESSRSGHSFLSNLHLRNGELVIHEKGFYYIYSQTYFRFQEEIKENTKNDKQMVQYIYKYTSYPDPILLMKSARNSCWSKDAEYGLYSIYQGGIFELKENDRIFVSVTNEHLIDMDHEASFFGAFLVG
modifications: extracellular domain
cell death of HIV-1-infected DCs (HIV-infected DCs): still susceptible to TRAIL-induced apoptosis
